Earlier results, collected in patent publication US20260009077A1, “COMPOSITIONS AND METHODS FOR TREATING HYPOTHYROIDISM” (THE UNIVERSITY OF CHICAGO, priority 2022, published 2026).

## N[C@@H](Cc1cc(I)c(Oc2cc(I)c(O)c(I)c2)c(I)c1)C(=O)O [levothyroxine]
After switch from T4 and T3 containing treatment to T4 only, despite appropriate T4 doses
  proportion of patients noticing reemergence of hypothyroid symptoms: 15-20%
Hypothyroidism patients, daily tablets, standard of care
  patients in whom treatment restores normal life: at least 80%
